Assay results reported in ChEMBL document CHEMBL1201862, “PubChem BioAssay data set” (2004).
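Five concentrations, 48 hours, 96-well plates. GI50 marks 50% less growth.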 Activity calls are given as the source filed them. Rule as the data show it: active = GI50 up to about 1.1 µM and inactive = higher.

How the values were obtained:
Assay in all cases: growth of human tumour cells (NCI), 48 h
[1] = system: A549
[2] = system: ACHN
[3] = system: BT-549
[4] = system: COLO 205
[5] = system: HCC 2998
[6] = system: HL-60
[7] = system: Hs-578T
[8] = system: IGROV-1
[9] = system: M14
[10] = system: MDA-MB-435
[11] = system: Malme-3M
[12] = system: OVCAR-4
[13] = system: PC-3
[14] = system: RPMI-8226
[15] = system: SF-295
[16] = system: SK-MEL-5
[17] = system: SNB-19
[18] = system: T47D
[19] = system: U-251
[20] = system: UACC-257

| Structure (SMILES) | GI50 [1] | GI50 [2] | GI50 [3] | GI50 [4] | GI50 [5] | GI50 [6] | GI50 [7] | GI50 [8] | GI50 [9] | GI50 [10] | GI50 [11] | GI50 [12] | GI50 [13] | GI50 [14] | GI50 [15] | GI50 [16] | GI50 [17] | GI50 [18] | GI50 [19] | GI50 [20] |
| --- | --- | --- | --- | --- | --- | --- | --- | --- | --- | --- | --- | --- | --- | --- | --- | --- | --- | --- | --- | --- |
| Nc1cc(O)c2c(c1O)C(=O)C=CC2=O | 19.6 µM (inactive) | 12.3 µM (inactive) | 16.7 µM (inactive) | 6.62 µM (inactive) | 9.31 µM (inactive) | 2.21 µM (inactive) | 26.5 µM (inactive) | 15.2 µM (inactive) | 7.76 µM (inactive) | 6.1 µM (inactive) | 2.67 µM (inactive) | 10.8 µM (inactive) | 19.5 µM (inactive) | 5.2 µM (inactive) | 17.3 µM (inactive) | 8.26 µM (inactive) | 23.8 µM (inactive) | 13.2 µM (inactive) | 18.2 µM (inactive) | 14.5 µM (inactive) |
| CCNCCCCNCCCCNCCCCNCCCCNCC | 20.7 µM (inactive) | > 89.9 µM (inactive) | > 100 µM (inactive) | 43.8 µM (inactive) | > 100 µM (inactive) | 9.04 µM (inactive) | 2.84 µM (inactive) | 41.9 µM (inactive) | > 100 µM (inactive) | 8.97 µM (inactive) | 6.49 µM (inactive) | > 22.2 µM (inactive) | > 100 µM (inactive) | 53 µM (inactive) | 42 µM (inactive) | 53.5 µM (inactive) | 99.8 µM (inactive) | 6.17 µM (inactive) | > 100 µM (inactive) | 40.1 µM (inactive) |
| COC1(OC)C2(Cl)C(Cl)=C(Cl)C1(Cl)C1c3ccc(C(C)=O)c4cccc(c34)C12 (stereo not given) | 23 µM (inactive) | 19 µM (inactive) | 47.6 µM (inactive) | 12.8 µM (inactive) | 10.2 µM (inactive) | 4.42 µM (inactive) | > 100 µM (inactive) | > 94.6 µM (inactive) | 11.9 µM (inactive) | 7.67 µM (inactive) | 12.3 µM (inactive) | 27.9 µM (inactive) | 14.2 µM (inactive) | 5.82 µM (inactive) | 26 µM (inactive) | 10.4 µM (inactive) | > 59 µM (inactive) | 20.8 µM (inactive) | 30.3 µM (inactive) | 25.6 µM (inactive) |
| S=c1[nH]nc(Cc2ccccc2)c(=S)[nH]1 | > 69.8 µM (inactive) | 4.8 µM (inactive) | 35.2 µM (inactive) | > 79.6 µM (inactive) | > 45.9 µM (inactive) | > 54.8 µM (inactive) | 33 µM (inactive) | > 53.1 µM (inactive) | > 78.9 µM (inactive) | 63 µM (inactive) | > 55.6 µM (inactive) | > 60.7 µM (inactive) | 24.9 µM (inactive) | 50.8 µM (inactive) | > 59.3 µM (inactive) | 46.7 µM (inactive) | > 87.9 µM (inactive) | 21.6 µM (inactive) | > 55.1 µM (inactive) | > 56.8 µM (inactive) |
| O=C(NC(Nc1ccc(F)cc1)(C(F)(F)F)C(F)(F)F)C(C(F)(F)F)C(F)(F)F | 5.53 µM (inactive) | 1.71 µM (inactive) | 18.7 µM (inactive) | 6.65 µM (inactive) | 12 µM (inactive) | 1.04 µM (active) | 20.4 µM (inactive) | 7.62 µM (inactive) | 0.402 µM (active) | 1.13 µM (inactive) | 48 µM (inactive) | 5.52 µM (inactive) | 4.91 µM (inactive) | 8.11 µM (inactive) | 3.01 µM (inactive) | 1.43 µM (inactive) | 48.2 µM (inactive) | 3.15 µM (inactive) | 57.4 µM (inactive) | 3.3 µM (inactive) |
| COc1cc(C2SCC(=O)N2c2ccc(-c3ccc(-n4c(-c5ccccc5)nc5ccccc5c4=O)cc3)cc2)ccc1O (stereo not given) | > 100 µM (inactive) | > 100 µM (inactive) | > 100 µM (inactive) | > 100 µM (inactive) | 82.2 µM (inactive) | 65.3 µM (inactive) | 40.1 µM (inactive) | > 100 µM (inactive) | > 100 µM (inactive) | 74.1 µM (inactive) | > 100 µM (inactive) | 37.9 µM (inactive) | 40.4 µM (inactive) | > 100 µM (inactive) | > 100 µM (inactive) | 26.7 µM (inactive) | > 100 µM (inactive) | 14.4 µM (inactive) | 44.2 µM (inactive) | > 100 µM (inactive) |
| CCOc1cc(C=O)c2c(ccc3ccc(OC)c(OC)c32)c1OC | 46.1 µM (inactive) | 44 µM (inactive) | 32.4 µM (inactive) | 32.5 µM (inactive) | 83.8 µM (inactive) | 24.4 µM (inactive) | 37.8 µM (inactive) | 89.9 µM (inactive) | 89.3 µM (inactive) | 70.6 µM (inactive) | 55.7 µM (inactive) | 51.1 µM (inactive) | 17.7 µM (inactive) | 15.5 µM (inactive) | 43.8 µM (inactive) | 52.4 µM (inactive) | > 100 µM (inactive) | 35.7 µM (inactive) | 88.9 µM (inactive) | 59.3 µM (inactive) |
| C=CCN1C(=O)CC2[C@@H]3CCc4cc(O)ccc4C3CC[C@]2(C)C1=O (stereo not given in full) | > 10 µM (inactive) | > 10 µM (inactive) | > 10 µM (inactive) | > 10 µM (inactive) | > 10 µM (inactive) | > 10 µM (inactive) | > 10 µM (inactive) | > 10 µM (inactive) | > 10 µM (inactive) | > 10 µM (inactive) | > 10 µM (inactive) | > 10 µM (inactive) | > 10 µM (inactive) | > 10 µM (inactive) | > 10 µM (inactive) | > 10 µM (inactive) | > 10 µM (inactive) | > 10 µM (inactive) | > 10 µM (inactive) | > 10 µM (inactive) |
| CC(=O)OCC1OC(OC2CC3C(C)(C)C(=O)CC[C@]3(C)C3CC[C@]45C[C@]4(CCC5[C@@H](C)CC(O)C(O)C(C)(C)O)[C@]23C)C(O)C(O)C1O (stereo not given in full) | 17.3 µM (inactive) | 16.4 µM (inactive) | 12.9 µM (inactive) | 5.85 µM (inactive) | 10 µM (inactive) | 2.25 µM (inactive) | 10.4 µM (inactive) | 11.1 µM (inactive) | 10.3 µM (inactive) | 8.99 µM (inactive) | 14.1 µM (inactive) | 12.7 µM (inactive) | 9.82 µM (inactive) | 3.56 µM (inactive) | 14.1 µM (inactive) | 7.66 µM (inactive) | 11.3 µM (inactive) | 5.68 µM (inactive) | 8.13 µM (inactive) | 11.2 µM (inactive) |
| C=C(C)[C@@]12C[C@H](OC(=O)[C@H](O)[C@@H](NC(=O)c3ccccc3)c3ccccc3)C(C)=C1[C@@H](OC(C)=O)C(=O)[C@@]1(C)C([C@@H]2OC(=O)c2cc(F)cc(F)c2)C2(OC(C)=O)CO[C@@H]2C[C@@H]1O (stereo not given in full) | 0.0752 µM (active) | 0.555 µM (active) | 0.194 µM (active) | 0.0789 µM (active) | 0.0668 µM (active) | 0.0269 µM (active) | 0.0186 µM (active) | 0.361 µM (active) | 0.141 µM (active) | 0.0117 µM (active) | 0.461 µM (active) | 2.38 µM (inactive) | 0.0826 µM (active) | 0.0236 µM (active) | > 10 µM (inactive) | 0.117 µM (active) | 0.238 µM (active) | 0.117 µM (active) | 0.0822 µM (active) | 0.0796 µM (active) |
| CC[C@H]1CN2CCc3cc(OC)c(OC)cc3[C@@H]2C[C@@H]1C[C@H]1NCCc2c1[nH]c1ccc(O)cc21 [TUBULOSINE] | < 0.01 µM (active) | 0.0396 µM (active) | 0.191 µM (active) | < 0.01 µM (active) | < 0.0105 µM (active) | < 0.01 µM (active) | 0.0169 µM (active) | 0.0157 µM (active) | < 0.0125 µM (active) | < 0.0125 µM (active) | 0.0421 µM (active) | < 0.01 µM (active) | < 0.0156 µM (active) | < 0.0133 µM (active) | 0.0195 µM (active) | 0.0135 µM (active) | < 0.01 µM (active) | < 0.0106 µM (active) | < 0.0103 µM (active) | 0.0582 µM (active) |
